{
  "source": "ChEMBL document CHEMBL5584229",
  "about": "“Application and challenges of nitrogen heterocycles in PROTAC linker” (Eur J Med Chem, 2024)",
  "key": {"[1]": {"target": "T1, Protein cereblon/Receptor-type tyrosine-protein kinase FLT3 (Homo sapiens, UniProt P36888+Q96SW2)", "T1 sequence (P36888 whole entry, looked up, change not shown)": "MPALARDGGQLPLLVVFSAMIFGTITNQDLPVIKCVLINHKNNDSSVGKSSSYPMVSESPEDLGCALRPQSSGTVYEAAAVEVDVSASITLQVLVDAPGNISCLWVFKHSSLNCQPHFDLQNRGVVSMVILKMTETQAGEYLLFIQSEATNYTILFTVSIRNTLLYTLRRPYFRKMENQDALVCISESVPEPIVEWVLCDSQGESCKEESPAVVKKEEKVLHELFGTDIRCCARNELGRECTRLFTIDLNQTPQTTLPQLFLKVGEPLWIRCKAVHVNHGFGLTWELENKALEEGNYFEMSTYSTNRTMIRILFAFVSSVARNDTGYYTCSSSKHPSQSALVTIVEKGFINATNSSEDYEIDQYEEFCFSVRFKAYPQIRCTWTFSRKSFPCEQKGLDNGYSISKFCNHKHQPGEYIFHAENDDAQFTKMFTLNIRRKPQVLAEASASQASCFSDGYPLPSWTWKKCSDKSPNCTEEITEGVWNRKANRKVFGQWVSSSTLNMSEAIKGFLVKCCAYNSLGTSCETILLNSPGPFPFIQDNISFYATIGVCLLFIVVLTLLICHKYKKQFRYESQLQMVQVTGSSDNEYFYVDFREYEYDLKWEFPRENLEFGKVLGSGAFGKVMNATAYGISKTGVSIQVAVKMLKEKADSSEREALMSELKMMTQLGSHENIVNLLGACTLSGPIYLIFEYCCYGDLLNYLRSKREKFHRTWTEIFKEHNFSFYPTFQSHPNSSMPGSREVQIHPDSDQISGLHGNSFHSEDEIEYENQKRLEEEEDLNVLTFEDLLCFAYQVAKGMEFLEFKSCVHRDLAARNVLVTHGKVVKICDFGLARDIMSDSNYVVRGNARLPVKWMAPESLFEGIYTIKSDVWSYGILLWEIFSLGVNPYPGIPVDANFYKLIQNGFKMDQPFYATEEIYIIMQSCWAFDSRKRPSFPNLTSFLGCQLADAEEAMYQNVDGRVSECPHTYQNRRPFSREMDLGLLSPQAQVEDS", "T1 sequence (Q96SW2 whole entry, looked up, change not shown)": "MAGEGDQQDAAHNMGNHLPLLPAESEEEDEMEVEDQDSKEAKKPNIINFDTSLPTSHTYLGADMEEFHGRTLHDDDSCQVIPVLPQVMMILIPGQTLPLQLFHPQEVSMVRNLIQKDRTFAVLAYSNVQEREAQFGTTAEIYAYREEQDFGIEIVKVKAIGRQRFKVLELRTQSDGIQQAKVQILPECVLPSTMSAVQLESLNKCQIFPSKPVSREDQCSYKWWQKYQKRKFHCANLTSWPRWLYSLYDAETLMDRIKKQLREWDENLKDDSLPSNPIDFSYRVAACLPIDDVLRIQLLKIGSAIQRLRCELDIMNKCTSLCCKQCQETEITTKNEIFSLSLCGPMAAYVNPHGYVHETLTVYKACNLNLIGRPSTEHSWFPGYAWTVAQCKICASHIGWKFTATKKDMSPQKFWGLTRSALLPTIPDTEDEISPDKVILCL", "assay": "PROTAC activity at CRBN/FLT3-ITD mutant in human MV4-11 cells assessed as protein degradation by Western blot analysis", "format": "cell-based"}, "[2]": {"target": "T1, Protein cereblon/Receptor-type tyrosine-protein kinase FLT3", "assay": "PROTAC activity at CRBN/FLT3 in human MV4-11 cells harboring FLT3-ITD mutation assessed as induction of FLT3 degradation incubated for 24 hrs by immunoblotting analysis", "format": "cell-based"}, "[3]": {"system": "von Hippel-Lindau disease tumor suppressor/Epidermal growth factor receptor (Homo sapiens), P00533+P40337 [UNDEFINED MUTATION]", "sequence (P00533 whole entry, looked up, stated change not applied)": "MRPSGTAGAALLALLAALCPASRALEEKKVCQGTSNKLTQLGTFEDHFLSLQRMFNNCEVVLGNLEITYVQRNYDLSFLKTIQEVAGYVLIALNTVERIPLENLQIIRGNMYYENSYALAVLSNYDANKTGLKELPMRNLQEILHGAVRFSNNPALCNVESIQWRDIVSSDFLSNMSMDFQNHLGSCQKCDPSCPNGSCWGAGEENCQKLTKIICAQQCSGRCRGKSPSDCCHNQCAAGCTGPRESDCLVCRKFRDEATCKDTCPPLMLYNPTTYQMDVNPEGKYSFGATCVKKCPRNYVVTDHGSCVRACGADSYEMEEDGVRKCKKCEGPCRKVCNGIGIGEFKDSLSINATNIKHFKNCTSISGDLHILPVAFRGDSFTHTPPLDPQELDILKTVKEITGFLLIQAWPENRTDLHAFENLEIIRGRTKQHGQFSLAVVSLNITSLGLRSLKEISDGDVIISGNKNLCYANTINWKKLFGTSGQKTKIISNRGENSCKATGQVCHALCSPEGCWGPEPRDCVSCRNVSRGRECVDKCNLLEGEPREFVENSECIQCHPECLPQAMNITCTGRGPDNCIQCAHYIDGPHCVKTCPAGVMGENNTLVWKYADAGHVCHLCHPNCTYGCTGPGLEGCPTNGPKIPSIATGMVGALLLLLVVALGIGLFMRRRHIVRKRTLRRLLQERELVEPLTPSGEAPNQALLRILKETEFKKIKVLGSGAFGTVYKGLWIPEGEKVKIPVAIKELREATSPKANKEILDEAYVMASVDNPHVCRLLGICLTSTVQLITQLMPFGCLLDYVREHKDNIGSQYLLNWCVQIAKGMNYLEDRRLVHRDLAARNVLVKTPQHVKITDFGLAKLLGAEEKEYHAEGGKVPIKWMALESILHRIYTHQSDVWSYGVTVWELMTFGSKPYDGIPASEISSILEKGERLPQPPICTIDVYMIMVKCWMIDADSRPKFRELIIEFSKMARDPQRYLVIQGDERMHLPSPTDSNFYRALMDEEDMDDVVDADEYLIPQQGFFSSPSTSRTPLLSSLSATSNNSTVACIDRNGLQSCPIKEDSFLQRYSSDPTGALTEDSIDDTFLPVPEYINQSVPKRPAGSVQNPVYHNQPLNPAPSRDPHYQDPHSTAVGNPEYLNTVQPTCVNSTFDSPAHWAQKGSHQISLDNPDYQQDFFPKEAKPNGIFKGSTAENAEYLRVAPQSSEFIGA", "sequence (P40337 whole entry, looked up, stated change not applied)": "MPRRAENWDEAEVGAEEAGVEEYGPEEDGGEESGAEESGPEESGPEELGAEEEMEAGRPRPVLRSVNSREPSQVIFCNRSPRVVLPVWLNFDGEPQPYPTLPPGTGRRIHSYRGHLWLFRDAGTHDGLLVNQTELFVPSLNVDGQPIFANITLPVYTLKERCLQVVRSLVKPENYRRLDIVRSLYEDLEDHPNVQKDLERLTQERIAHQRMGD", "assay": "PROTAC activity at VHL/EGFR del19 mutant in human HCC827 cells assessed as maximal degradation incubated for 24 hrs by immunoblot analysis relative to control", "format": "cell-based"}, "[4]": {"target": "T2, Protein cereblon/ALK tyrosine kinase receptor (Homo sapiens, UniProt Q9UM73+Q96SW2)", "assay": "PROTAC activity at CRBN/ALK in human NCI-H3122 cells assessed as induction of ALK degradation incubated for 24 hrs by Western blot analysis", "format": "cell-based"}, "[5]": {"target": "T3, von Hippel-Lindau disease tumor suppressor/Mitogen-activated protein kinase 14 (Homo sapiens, UniProt Q16539+P40337)", "T3 sequence (Q16539 whole entry)": "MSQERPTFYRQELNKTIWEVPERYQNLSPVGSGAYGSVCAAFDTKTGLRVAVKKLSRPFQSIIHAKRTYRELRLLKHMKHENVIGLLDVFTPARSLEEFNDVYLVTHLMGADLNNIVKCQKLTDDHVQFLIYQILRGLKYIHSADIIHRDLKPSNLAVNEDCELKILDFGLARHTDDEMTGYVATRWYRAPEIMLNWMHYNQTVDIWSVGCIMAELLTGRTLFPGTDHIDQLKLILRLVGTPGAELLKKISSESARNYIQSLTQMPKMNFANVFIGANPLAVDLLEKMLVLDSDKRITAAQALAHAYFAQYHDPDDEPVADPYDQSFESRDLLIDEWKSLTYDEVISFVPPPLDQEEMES", "T3 sequence (P40337 whole entry)": "as the sequence (P40337 whole entry, looked up, stated change not applied) above", "assay": "PROTAC activity at VHL/N-terminal His-tagged human p38alpha in MDA-MB-231 cells assessed as p38alpha degradation", "format": "cell-based"}, "[6]": {"target": "T3, von Hippel-Lindau disease tumor suppressor/Mitogen-activated protein kinase 14", "assay": "PROTAC activity at VHL/N-terminal His-tagged human p38alpha in T47D cells assessed as p38alpha degradation", "format": "cell-based"}, "[7]": {"target": "Protein cereblon/Androgen receptor (Homo sapiens, UniProt P10275+Q96SW2)", "sequence (P10275 whole entry)": "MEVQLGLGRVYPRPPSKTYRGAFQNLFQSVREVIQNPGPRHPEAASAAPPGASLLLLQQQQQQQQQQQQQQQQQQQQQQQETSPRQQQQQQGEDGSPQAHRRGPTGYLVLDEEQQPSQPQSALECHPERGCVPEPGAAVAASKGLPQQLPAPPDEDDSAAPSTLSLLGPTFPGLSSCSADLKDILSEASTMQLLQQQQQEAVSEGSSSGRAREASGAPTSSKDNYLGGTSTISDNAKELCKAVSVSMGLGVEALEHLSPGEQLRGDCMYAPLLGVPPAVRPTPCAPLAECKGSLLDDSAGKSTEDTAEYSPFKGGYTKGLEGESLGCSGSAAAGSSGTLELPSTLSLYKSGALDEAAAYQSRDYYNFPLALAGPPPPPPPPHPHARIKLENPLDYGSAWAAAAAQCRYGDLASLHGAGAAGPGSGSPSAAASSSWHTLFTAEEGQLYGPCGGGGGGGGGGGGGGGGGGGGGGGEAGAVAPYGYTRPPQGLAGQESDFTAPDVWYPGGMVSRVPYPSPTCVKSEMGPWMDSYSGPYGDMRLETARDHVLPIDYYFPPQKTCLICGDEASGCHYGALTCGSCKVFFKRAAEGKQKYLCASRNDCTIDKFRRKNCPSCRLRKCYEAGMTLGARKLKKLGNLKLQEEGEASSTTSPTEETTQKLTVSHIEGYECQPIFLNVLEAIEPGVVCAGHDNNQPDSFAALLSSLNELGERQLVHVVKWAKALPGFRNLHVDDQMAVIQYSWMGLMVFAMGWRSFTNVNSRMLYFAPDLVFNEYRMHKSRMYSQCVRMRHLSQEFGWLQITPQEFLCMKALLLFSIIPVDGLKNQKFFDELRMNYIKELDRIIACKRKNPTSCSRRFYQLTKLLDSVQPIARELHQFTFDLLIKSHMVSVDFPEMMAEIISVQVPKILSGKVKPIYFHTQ", "sequence (Q96SW2 whole entry)": "as the sequence (Q96SW2 whole entry, looked up, change not shown) above", "assay": "PROTAC activity at AR/CRBN in human A549 cells assessed as induction of androgen receptor degradation measured after 1 hr by Western blot analysis", "format": "cell-based"}, "A549": {"system": "A549", "assay": "Cytotoxicity against human A549 cells assessed as reduction in cell growth incubated for 5 days by MTT assay", "format": "functional, cell-based", "details": "A549, 120 h"}, "[8]": {"target": "E3 ubiquitin-protein ligase Mdm2/Histone deacetylase 1 (Homo sapiens) (UniProt Q00987+Q13547)", "assay": "PROTAC activity at MDM2/HDAC1 in human HCT-116 cells assessed as induction of HDAC1 degradation at 10 uM by Western blot analysis relative to control", "format": "cell-based"}, "[9]": {"target": "Protein cereblon/Cyclin-dependent kinase 9 (Homo sapiens) (UniProt P50750+Q96SW2)", "sequence (P50750 whole entry, looked up)": "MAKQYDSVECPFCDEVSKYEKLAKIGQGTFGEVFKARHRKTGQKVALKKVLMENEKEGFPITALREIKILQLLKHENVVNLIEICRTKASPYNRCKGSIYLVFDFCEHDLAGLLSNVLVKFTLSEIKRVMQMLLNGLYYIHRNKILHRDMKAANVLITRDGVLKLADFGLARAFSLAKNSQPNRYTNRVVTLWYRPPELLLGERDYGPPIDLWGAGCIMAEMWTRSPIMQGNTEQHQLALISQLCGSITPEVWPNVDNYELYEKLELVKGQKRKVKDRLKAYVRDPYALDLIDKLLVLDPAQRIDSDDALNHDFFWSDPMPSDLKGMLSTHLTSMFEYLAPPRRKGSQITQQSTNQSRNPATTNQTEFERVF", "sequence (Q96SW2 whole entry, looked up)": "as the sequence (Q96SW2 whole entry, looked up, change not shown) above", "assay": "Protac activity at CRBN/CDK9 in human HeLa cells assessed as […] at 1 uM measured after 6 hrs by Western blot analysis", "format": "cell-based"}, "HeLa": {"system": "HeLa", "assay": "Antiproliferative activity against human HeLa cells assessed as reduction in cell viability incubated for 24 hrs by MTT assay", "format": "functional, cell-based"}, "[10]": {"target": "T2, Protein cereblon/ALK tyrosine kinase receptor", "assay": "PROTAC activity at CRBN/ALK in human NCI-H3122 cells assessed as induction of ALK degradation by measuring maximal degradation at […] incubated for 24 hrs by Western blot analysis", "format": "cell-based"}, "[11]": {"assay": "AUC (0 to t) in ICR mouse at 2 mg/kg, iv", "format": "ADME, organism-based", "details": "in vivo"}, "[12]": {"target": "Von Hippel-Lindau disease tumor suppressor/Elongin B/Elongin C (Homo sapiens, UniProt P40337)", "sequence (P40337 whole entry, looked up, the tested form may be a part)": "as the sequence (P40337 whole entry, looked up, stated change not applied) above", "assay": "Inhibition of 6xHis-tagged VHL (1 to 213 residues)/Elongin B/Elogin C (unknown origin) expressed in Escherichia coli BL21 cells by fluorescence polarization assay"}},
  "data": [
    {"smiles": "CC(C)(C)c1cc(NC(=O)Nc2ccc(-c3cn(CCCCc4cn(CCCCC(=O)Nc5cccc6c5CN(C5CCC(=O)NC5=O)C6=O)nn4)c4ncnc(N)c34)cc2)no1", "note": "(configuration not stated)", "values": [
      {"measurement": "DC50", "setting": "[1]", "value": 76.7, "unit": "nM"},
      {"measurement": "DC50", "setting": "[2]", "value": 7850, "unit": "nM"}
    ]},
    {"smiles": "Cc1ncsc1-c1ccc(CNC(=O)[C@@H]2C[C@@H](O)CN2C(=O)[C@@H](NC(=O)CCCCCCCCCCn2cc(COc3cc4ncnc(Nc5ccc(F)c(Cl)c5)c4cc3NC(=O)/C=C/CN3CCCCC3)nn2)C(C)(C)C)cc1", "values": [
      {"measurement": "Emax", "setting": "[3]", "value": 91, "unit": "%"}
    ]},
    {"smiles": "N#Cc1cccc(-c2ccc(=O)n(Cc3cccc(-c4ncc(OCC5CCN(CC(=O)N6CCN(c7ccc8c(c7)C(=O)N(C7CCC(=O)NC7=O)C8=O)CC6)CC5)cn4)c3)n2)c1", "note": "(configuration not stated)", "values": [
      {"measurement": "DC50", "setting": "[4]", "value": 0.35, "unit": "nM"}
    ]},
    {"smiles": "Cc1ccc(C(=O)NCCCc2cn(CCCC(=O)NCCCCCC(=O)N[C@H](C(=O)N3C[C@H](O)C[C@H]3C(=O)N[C@@H](C)c3ccc(-c4scnc4C)cc3)C(C)(C)C)nn2)cc1-n1c(C)cc(OCc2ccc(F)cc2F)c(Br)c1=O", "values": [
      {"measurement": "DC50", "setting": "[5]", "value": 11.6, "unit": "nM"}
    ]},
    {"smiles": "C=C1c2cccc(NCCCCCCNC(=O)CCCn3cc(CCCCNC(=O)c4ccc(C)c(-n5c(C)cc(OCc6ccc(F)cc6F)c(Br)c5=O)c4)nn3)c2C(=O)N1C1CCC(=O)NC1=O", "note": "(configuration not stated)", "values": [
      {"measurement": "DC50", "setting": "[5]", "value": 18.4, "unit": "nM"},
      {"measurement": "DC50", "setting": "[6]", "value": 2.9, "unit": "nM"}
    ]},
    {"smiles": "CC1(C)C(=O)N(c2ccc(C#N)c(C(F)(F)F)c2)C(=S)N1c1ccc(-c2ccc(O[C@@H]3CCN(C(=O)C4CCN(c5ccc6c(c5)C(=O)N(C5CCC(=O)NC5=O)C6=O)CC4)C3)cc2)cc1", "note": "(some centres not stated)", "values": [
      {"measurement": "DC50", "setting": "[7]", "value": 75, "unit": "nM"}
    ]},
    {"smiles": "COC(C)(C)CCC[C@@](C)(O)[C@H]1CC[C@]2(C)[C@@H]1[C@H](O)C[C@@H]1[C@@]3(C)CC[C@H](OCC(=O)N4CCC(CN5CCN(c6ccc7c(c6)CN(C6CCC(=O)NC6=O)C7=O)CC5)CC4)C(C)(C)[C@@H]3CC[C@]12C", "note": "(some centres not stated)", "values": [
      {"measurement": "IC50", "setting": "A549", "value": 2160, "unit": "nM"},
      {"measurement": "Emax", "setting": "[8]", "value": 65.4, "unit": "%"}
    ]},
    {"smiles": "N#Cc1cccc(-c2ccc(=O)n(Cc3cccc(-c4ncc(OCC5CCN(CC(=O)N6CCN(CCNc7ccc8c(c7)C(=O)N(C7CCC(=O)NC7=O)C8=O)CC6)CC5)cn4)c3)n2)c1", "note": "(configuration not stated)", "values": [
      {"measurement": "DC50", "setting": "[4]", "value": 0.6, "unit": "nM"}
    ]},
    {"smiles": "O=C1CCC(N2C(=O)c3cccc(NC(=O)CCCCCCCn4cc(COc5c(O)cc(O)c6c(=O)cc(-c7ccccc7)oc56)nn4)c3C2=O)C(=O)N1", "note": "(configuration not stated)", "values": [
      {"measurement": "Emax", "setting": "[9]", "value": 61.2, "unit": "%"}
    ]},
    {"smiles": "CC1(NCc2cn(CCOCCOCCOCCOCCNc3cccc4c3C(=O)N(C3CCC(=O)NC3=O)C4=O)nn2)CCN(c2cnc(-c3cccc(Cl)c3Cl)c(N)n2)CC1", "note": "(configuration not stated)", "values": [
      {"measurement": "IC50", "setting": "HeLa", "value": 4300, "unit": "nM"}
    ]},
    {"smiles": "N#Cc1cccc(-c2ccc(=O)n(Cc3cccc(-c4ncc(OCC5CCN(CC(=O)NCCOCNc6ccc7c(c6)C(=O)N(C6CCC(=O)NC6=O)C7=O)CC5)cn4)c3)n2)c1", "note": "(configuration not stated)", "values": [
      {"measurement": "Emax", "setting": "[10]", "value": "> 99", "unit": "%"},
      {"measurement": "DC50", "setting": "[4]", "value": 0.77, "unit": "nM"}
    ]},
    {"smiles": "NC(=O)c1cccc2cn(-c3ccc(C4CCCN(CCC5CCN(CCC6CCN(c7ccc8c(c7)C(=O)N(C7CCC(=O)NC7=O)C8=O)CC6)CC5)C4)cc3)nc12", "note": "(configuration not stated)", "values": [
      {"measurement": "AUC(0-t)", "setting": "[11]", "value": 24500, "unit": "ng·h/mL"}
    ]},
    {"smiles": "CCCS(=O)(=O)Nc1ccc(F)c(C(=O)c2c[nH]c3ncc(-c4ccc(N5CCN(CC(=O)N[C@H](C(=O)N6C[C@H](O)C[C@H]6C(=O)NCc6ccc(-c7scnc7C)cc6)C(C)(C)C)CC5)cc4)cc23)c1F", "values": [
      {"measurement": "IC50", "setting": "[12]", "value": 6.8, "unit": "nM"}
    ]}
  ]
}
